Laboratory results taken from patent US20250059182A1, “SOS1 INHIBITORS” (Mirati Therapeutics, Inc., priority 2021, published 2025).
Counter-ions that a name gives are not always drawn.

molecular target: T1, recombinant human SOS1 polypeptide (amino acids 560-1049) (Homo sapiens, UniProt Q07889); experiment: HTRF displacement assay: inhibition of labeled tracer binding to SOS1; details: Table A, Morrison equation for competitive binding
T1 construct: corresponding to amino acids 560-1049, expressed in E. Coli; made in house; host or cells: E. coli
T1 sequence (Q07889 560-1049): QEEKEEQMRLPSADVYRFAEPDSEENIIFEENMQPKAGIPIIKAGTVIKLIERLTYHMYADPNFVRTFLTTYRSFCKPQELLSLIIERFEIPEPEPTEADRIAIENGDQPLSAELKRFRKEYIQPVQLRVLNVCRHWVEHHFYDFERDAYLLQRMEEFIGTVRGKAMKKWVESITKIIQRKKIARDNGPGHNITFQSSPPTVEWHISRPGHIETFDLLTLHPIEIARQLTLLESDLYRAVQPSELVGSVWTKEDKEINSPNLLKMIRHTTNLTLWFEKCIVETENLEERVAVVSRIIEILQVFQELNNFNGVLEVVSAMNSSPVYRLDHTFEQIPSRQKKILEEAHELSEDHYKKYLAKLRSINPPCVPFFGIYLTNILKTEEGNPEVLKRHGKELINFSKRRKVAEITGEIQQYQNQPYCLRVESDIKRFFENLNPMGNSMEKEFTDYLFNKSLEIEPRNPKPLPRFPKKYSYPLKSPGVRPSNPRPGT

SMILES	Ki
Cc1nnc(N[C@H](C)c2cccc(C(F)F)c2F)c2cc(N3CCN(C)CC3)c(F)cc12 [Example 4-20, (R)-N-(1-(3-(difluoromethyl)-2-fluorophenyl)ethyl)-6-fluoro-4-methyl-7-(4-methylpiperazin-1-yl)phthalazin-1-amine]	0.547 nM
Cc1nnc(N[C@H](C)c2cccc(C(C)(F)F)c2F)c2cc(N3CCN(C)CC3)c(C#N)cc12 [Example 6-21, (R)-1-((1-(3-(1,1-difluoroethyl)-2-fluorophenyl)ethyl)amino)-4-methyl-7-(4-methylpiperazin-1-yl)phthalazine-6-carbonitrile]	1.05 nM

tested on: pERK in MKN1 cells; experiment: pERK inhibition, In-Cell Western (LI-COR Odyssey), MKN1 cells; assay type: cell-based; details: Homo sapiens, MKN-1, Table B1; MKN1 or H358 cells (table does not say which); 0.5-1 hour incubation; read-out: IC50 (nM), pERK inhibition
Procedure: This Example illustrates that exemplary compounds of the present invention prevent KRas-mediated GTP nucleotide exchange mediated by SOS1 to inhibit KRas activity thereby inhibiting the generation of the downstream effector pERK.
MKN1 cells (15,000/w) or H358 (30,000/w) were seeded in a black clear flat bottom 96-well cell culture plate (Corning, #3904) and incubated at 37° C. overnight. Assay day 1, cells were dosed with compounds of Formula (I) with a 10 μm starting concentration and serially diluted 3× for a total of 9 concentrations. The cells were incubated for approximately 0.5-1 hour with the compounds solubilized in DMSO at 37° C. Cells were immediately fixed by adding 50 μL of 4% formaldehyde to all wells in a fume hood and the plates were incubated for 20 minutes at room temperature. The formaldehyde was discarded from the plates and 150 μL of ice-cold methanol was added to permeabilize the cells for 10 minutes at −20° C. The methanol was discarded from each of the plates and any liquid remaining in the plate by tapping the plate against paper towels. Cells were then blocked with 150 μL of Odyssey blocking buffer (LI-COR Biosciences #927-50010) using 0.05% Tween for 1 hour at room temperature on a shaker. The blocking buffer was discarded and 50 μL of primary antibodies pERK (cell signaling Technology #9101L; Rabbit, 1:500) and GapDH (Millipore #MAB34; Mouse, 1:5000) diluted in Odyssey blocking buffer was added. The plates were incubated overnight at 4° C. on a shaker.
On Assay day 2, the primary antibody solution was removed. Each plate was washed 3× times with 150 μL of 1×PBST (PBS+0.1% Tween 20) and incubated with 50 μL of secondary antibodies: Anti-Rabbit (LI-COR Biosciences #926-32211) and Anti-Mouse (LI-COR Biosciences #68070) at 1:800 dilution in Odyssey blocking buffer with Tween at room temperature on a shaker for 2 hours (protected from light). The secondary antibody solution as removed and each plate was washed with PBST 3× times. Any liquid remaining was discarded and the plate was imaged using the Licor Odyssey machine according to the manufacturer's instruction, using a set focus length at 3 mm and both 800 nm and 700 nm filters. The GAPDH normalized scan values for each well were divided by the average of vehicle wells to get the % of pERK inhibition. The IC50 values were then calculated with the Graph pad Prism software.

IC50	SMILES
120 nM	Cc1c(C#N)cccc1[C@@H](C)Nc1nnc(C)c2cnc(N3CCc4nn(C)cc4C3)cc12 [Example P-51, (R)-2-methyl-3-(1-((4-methyl-7-(2-methyl-2,4,6,7-tetrahydro-5H-pyrazolo[4,3-c]pyridin-5-yl)pyrido[3,4-d]pyridazin-1-yl)amino)ethyl)benzonitrile]
57 nM	Cc1c(C#N)cccc1[C@@H](C)Nc1nnc(C)c2c(C)nc(N3CCN(C)CC3)cc12 [Example P-189, (R)-3-(1-((4,5-dimethyl-7-(4-methylpiperazin-1-yl)pyrido[3,4-d]pyridazin-1-yl)amino)ethyl)-2-methylbenzonitrile]
68.4 nM	Cc1c(C#N)cccc1[C@@H](C)Nc1nnc(C)c2cnc(N3CCC34CN(CCCF)C4)cc12 [Example P-228, (R)-3-(1-((7-(6-(3-fluoropropyl)-1,6-diazaspiro[3.3]heptan-1-yl)-4-methylpyrido[3,4-d]pyridazin-1-yl)amino)ethyl)-2-methylbenzonitrile]

same assay, conditions: Homo sapiens, MKN-1, Table B; MKN1 or H358 cells (table does not say which); 0.5-1 hour incubation; read-out: IC50 (nM), pERK inhibition

SMILES	IC50
Cc1c(C#N)cccc1[C@@H](C)Nc1nnc(C)c2cc(Cl)c(N3CCOCC3)cc12 [7-2, (R)-3-(1-((6-chloro-4-methyl-7-morpholinophthalazin-1-yl)amino)ethyl)-2-methylbenzonitrile]	286 nM
Cc1nnc(N[C@H](C)c2cccc(C(F)(F)F)c2F)c2cc(N(C)[C@H]3CCN(C)C3)ncc12 [Example 1-28, N^1-((R)-1-(2-fluoro-3-(trifluoromethyl)phenyl)ethyl)-N^7,4-dimethyl-N^7-((S)-1-methylpyrrolidin-3-yl)pyrido[3,4-d]pyridazine-1,7-diamine]	52.3 nM
Cc1nnc(N[C@H](C)c2cccc(C(F)(F)F)c2F)c2cc(N(C)[C@@H]3CCN(C)C3)ncc12 [Example 1-29, N^1-((R)-1-(2-fluoro-3-(trifluoromethyl)phenyl)ethyl)-N^7,4-dimethyl-N^7-((R)-1-methylpyrrolidin-3-yl)pyrido[3,4-d]pyridazine-1,7-diamine]	41 nM
Cc1c(C#N)cccc1[C@@H](C)Nc1nnc(C)c2cnc(N[C@H]3CCN(C)C3)cc12 [Example 1-30, 2-methyl-3-((R)-1-((4-methyl-7-(((S)-1-methylpyrrolidin-3-yl)amino)pyrido[3,4-d]pyridazin-1-yl)amino)ethyl)benzonitrile]	250 nM
Cc1c(C#N)cccc1[C@@H](C)Nc1nnc(C)c2cnc(N[C@@H]3CCN(C)C3)cc12 [Example 1-31, 2-methyl-3-((R)-1-((4-methyl-7-(((R)-1-methylpyrrolidin-3-yl)amino)pyrido[3,4-d]pyridazin-1-yl)amino)ethyl)benzonitrile]	128 nM
Cc1nnc(N[C@H](C)c2ccc(C#N)cc2F)c2cc(N3CCN(C)CC3)ncc12 [Example 1-98, (R)-3-fluoro-4-(1-((4-methyl-7-(4-methylpiperazin-1-yl)pyrido[3,4-d]pyridazin-1-yl)amino)ethyl)benzonitrile]	186 nM
Cc1c(C#N)cccc1[C@@H](C)Nc1nnc(C)c2cc(F)c(N3CC(C)(N(C)C)C3)cc12 [Example 4-8, (R)-3-(1-((7-(3-(dimethylamino)-3-methylazetidin-1-yl)-6-fluoro-4-methylphthalazin-1-yl)amino)ethyl)-2-methylbenzonitrile]	109 nM
Cc1c(C#N)cccc1[C@@H](C)Nc1nnc(C)c2cc(F)c(N3CCOCC3)cc12 [Example 4-12, (R)-3-(1-((6-fluoro-4-methyl-7-morpholinophthalazin-1-yl)amino)ethyl)-2-methylbenzonitrile]	120 nM
COc1cc2c(C)nnc(N[C@H](C)c3cccc(C#N)c3C)c2cc1O[C@H]1CCOC1 [Example 6-15, 3-((R)-1-((6-methoxy-4-methyl-7-(((S)-tetrahydrofuran-3-yl)oxy)phthalazin-1-yl)amino)ethyl)-2-methylbenzonitrile]	165 nM

More lines, now with the values ahead:

IC50	SMILES
99 nM	Cc1c(C#N)cccc1[C@@H](C)Nc1nnc(C)c2cnc(N3CCN(C)C(=O)C3)cc12 [Example 1-45, (R)-2-methyl-3-(1-((4-methyl-7-(4-methyl-3-oxopiperazin-1-yl)pyrido[3,4-d]pyridazin-1-yl)amino)ethyl)benzonitrile]
121 nM	Cc1c(C#N)cccc1[C@@H](C)Nc1nnc(C)c2cnc(N3C[C@@H](C)N(C)[C@@H](C)C3)cc12 [Example 1-67, 2-methyl-3-((R)-1-((4-methyl-7-((3R,5S)-3,4,5-trimethylpiperazin-1-yl)pyrido[3,4-d]pyridazin-1-yl)amino)ethyl)benzonitrile]
61 nM	Cc1c(C#N)cccc1[C@@H](C)Nc1nnc(C)c2cnc(N3C[C@H](C)N(C)[C@@H](C)C3)cc12 [Example 1-68, 2-methyl-3-((R)-1-((4-methyl-7-((3S,5S)-3,4,5-trimethylpiperazin-1-yl)pyrido[3,4-d]pyridazin-1-yl)amino)ethyl)benzonitrile]
590 nM	Cc1c(C#N)cccc1[C@@H](C)Nc1nnc(C)c2cnc(N3C[C@@H]4C[C@H]3CN4)cc12 [Example 1-75, 3-((R)-1-((7-((1S,4S)-2,5-diazabicyclo[2.2.1]heptan-2-yl)-4-methylpyrido[3,4-d]pyridazin-1-yl)amino)ethyl)-2-methylbenzonitrile]
53.9 nM	Cc1c(C#N)cccc1[C@@H](C)Nc1nnc(C)c2cnc(N(C)[C@@H]3CCN(C(C)C)C3)cc12 [Example 1-78, 3-((R)-1-((7-(((R)-1-isopropylpyrrolidin-3-yl)(methyl)amino)-4-methylpyrido[3,4-d]pyridazin-1-yl)amino)ethyl)-2-methylbenzonitrile]
75.2 nM	Cc1c(C#N)cccc1[C@@H](C)Nc1nnc(C)c2cnc(N(C)[C@H]3CCN(C(C)C)C3)cc12 [Example 1-79, 3-((R)-1-((7-(((S)-1-isopropylpyrrolidin-3-yl)(methyl)amino)-4-methylpyrido[3,4-d]pyridazin-1-yl)amino)ethyl)-2-methylbenzonitrile]
60.9 nM	Cc1c(C#N)cccc1[C@@H](C)Nc1nnc(C)c2cnc(N3CC4(COC4)C3)cc12 [Example 1-80, (R)-2-methyl-3-(1-((4-methyl-7-(2-oxa-6-azaspiro[3.3]heptan-6-yl)pyrido[3,4-d]pyridazin-1-yl)amino)ethyl)benzonitrile]

same assay, conditions: Homo sapiens, MKN-1, read-out: IC50 (nM), pERK inhibition

SMILES	IC50
COc1cc2cnnc(N[C@H](C)c3cccc4ccccc34)c2cc1OC [Example P-210, (R)-6,7-dimethoxy-N-(1-(naphthalen-1-yl)ethyl)phthalazin-1-amine formic acid salt]	> 10000 nM
Cc1c(Br)cccc1[C@@H](C)Nc1nnc(C)c2cnc(N3CCOCC3)cc12 [Example P-213, (R)-N-(1-(3-bromo-2-methylphenyl)ethyl)-4-methyl-7-morpholinopyrido[3,4-d]pyridazin-1-amine formic acid salt]	114 nM
